Measured values published in US20230119141A1, “USES OF TAXIFOLIN FOR R[…]” (PHYTO TECH CORP., priority 2021, published 2023).

Test system: SARS-CoV-2
Experiment: SARS-CoV-2 infection in Golden Syrian hamsters, viral loads in swabs and organs
Assay type: in vivo
Procedure: The therapeutic efficacy of taxifolin against SARS-CoV-2 infection was examined in Golden Syrian hamsters, a small animal model that most closely recapitulates clinical and pathological features of COVID-19 in humans. See, e.g., Imai, M, et al., Proc. Nat. Acad. Sci. 117(28):16587-16595 (2020); Reagan-Shaw, S., et al., FASEB J. 22:659-661 (2007). […] Animals in the taxifolin group (n=15) received prophylactic treatment of taxifolin (66.7 mg/kg) through oral gavage (OG) before the viral infection.
After SARS-CoV-2 inoculation, animals in the taxifolin group were orally given taxifolin (66.7 mg/kg) at days 1, 3, and 5. Animals in the control group (n=10) received an equal amount of PBS through oral gavage. At day 7, certain animals in the taxifolin (n=6) group and control group (n=5) were sacrificed, and the viral loads in major organs were tested.

For `O=C1c2c(O)cc(O)cc2OC(c2ccc(O)c(O)c2)C1O` (stereo not shown) [taxifolin, 2-(3,4-dihydroxyphenyl)-3,5,7-trihydroxychroman-4-one], the “viral load in nasal swabs” value (day 5 after infection, taxifolin 66.7 mg/kg oral gavage prophylactic and at days 1, 3, 5, n=8, control ~3×10^6) was ~7×10^4 RNA copies/100 μL, the “viral loads in oral swabs vs control” value (day 7, taxifolin 66.7 mg/kg oral gavage) was “decreased the viral loads in oral swabs” and the “viral loads in the trachea vs control” value (day 7, taxifolin 66.7 mg/kg oral gavage, n=4 per group) was “clearly reduced the viral loads in the trachea”. The “viral loads in nasal swabs vs control” value (days 3 and 5 after viral infection, taxifolin 66.7 mg/kg oral gavage) was “significantly lowered the viral loads in nasal swabs”.
